Measurements taken from patent publication EP0918774B9, “ANDROGEN RECEPTOR MODULATOR COMPOUNDS AND METHODS” (LIGAND PHARMACEUTICALS INCORPORATED, priority 1996, dated 1997).

Columns and labels:
MR = target: T1, MR (Homo sapiens, UniProt P08235); test: Co-transfection assay, MR antagonist mode; assay type: cell-based
T1 construct: expressed in transfected cells; host or cells: CV-1 cells
T1 sequence (P08235 1-984): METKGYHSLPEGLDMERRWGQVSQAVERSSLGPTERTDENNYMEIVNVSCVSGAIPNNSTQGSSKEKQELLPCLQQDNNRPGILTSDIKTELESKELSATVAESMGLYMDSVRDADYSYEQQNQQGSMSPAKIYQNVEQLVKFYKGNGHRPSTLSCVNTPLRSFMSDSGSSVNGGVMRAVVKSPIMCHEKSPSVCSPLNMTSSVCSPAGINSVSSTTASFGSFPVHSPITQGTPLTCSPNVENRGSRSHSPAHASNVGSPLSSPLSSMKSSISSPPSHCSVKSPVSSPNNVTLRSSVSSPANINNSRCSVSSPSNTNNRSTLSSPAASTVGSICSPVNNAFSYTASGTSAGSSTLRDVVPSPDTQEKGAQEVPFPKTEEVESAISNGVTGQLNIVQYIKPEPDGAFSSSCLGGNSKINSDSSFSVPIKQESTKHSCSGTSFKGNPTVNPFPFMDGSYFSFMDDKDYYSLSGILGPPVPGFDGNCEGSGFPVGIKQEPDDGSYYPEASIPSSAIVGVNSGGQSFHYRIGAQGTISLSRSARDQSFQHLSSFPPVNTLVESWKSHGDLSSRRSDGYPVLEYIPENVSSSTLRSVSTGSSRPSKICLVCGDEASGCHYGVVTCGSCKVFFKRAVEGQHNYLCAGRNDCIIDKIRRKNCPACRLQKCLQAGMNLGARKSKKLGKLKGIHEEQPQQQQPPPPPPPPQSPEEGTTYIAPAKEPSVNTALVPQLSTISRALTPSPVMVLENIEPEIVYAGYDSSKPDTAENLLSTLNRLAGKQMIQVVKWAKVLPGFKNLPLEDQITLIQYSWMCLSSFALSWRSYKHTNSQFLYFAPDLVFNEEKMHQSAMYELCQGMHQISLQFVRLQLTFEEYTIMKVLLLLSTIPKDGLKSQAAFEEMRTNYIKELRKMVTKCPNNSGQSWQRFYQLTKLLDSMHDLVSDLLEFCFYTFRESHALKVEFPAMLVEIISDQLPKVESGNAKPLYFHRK
Method: (§1) CV-1 cells (African green monkey kidney fibroblasts) were cultured in the presence of Dulbecco's Modified Eagle Medium (DMEM) supplemented with 10% charcoal resinstripped fetal bovine serum then transferred to 96-well microtiter plates one day prior to transfection.
(§2) Three to four replicates were used for each sample.
(§3) After 40 hours, the cells were washed with PBS, lysed with a Triton X-100-based buffer and assayed for LUC and β-Gal activities using a luminometer or spectrophotometer, respectively. For each replicate, the normalized response (NR) was calculated as: LUC response/β-Gal rate where β-Gal rate = β-Gal•1x10^-5/β-Gal incubation time.

PR = target: T2, PR (Homo sapiens, UniProt P06401); test: Co-transfection assay, PR agonist mode; assay type: cell-based; parameters: expressed in transfected cells; host or cells: CV-1 cells
T2 sequence (P06401 1-933): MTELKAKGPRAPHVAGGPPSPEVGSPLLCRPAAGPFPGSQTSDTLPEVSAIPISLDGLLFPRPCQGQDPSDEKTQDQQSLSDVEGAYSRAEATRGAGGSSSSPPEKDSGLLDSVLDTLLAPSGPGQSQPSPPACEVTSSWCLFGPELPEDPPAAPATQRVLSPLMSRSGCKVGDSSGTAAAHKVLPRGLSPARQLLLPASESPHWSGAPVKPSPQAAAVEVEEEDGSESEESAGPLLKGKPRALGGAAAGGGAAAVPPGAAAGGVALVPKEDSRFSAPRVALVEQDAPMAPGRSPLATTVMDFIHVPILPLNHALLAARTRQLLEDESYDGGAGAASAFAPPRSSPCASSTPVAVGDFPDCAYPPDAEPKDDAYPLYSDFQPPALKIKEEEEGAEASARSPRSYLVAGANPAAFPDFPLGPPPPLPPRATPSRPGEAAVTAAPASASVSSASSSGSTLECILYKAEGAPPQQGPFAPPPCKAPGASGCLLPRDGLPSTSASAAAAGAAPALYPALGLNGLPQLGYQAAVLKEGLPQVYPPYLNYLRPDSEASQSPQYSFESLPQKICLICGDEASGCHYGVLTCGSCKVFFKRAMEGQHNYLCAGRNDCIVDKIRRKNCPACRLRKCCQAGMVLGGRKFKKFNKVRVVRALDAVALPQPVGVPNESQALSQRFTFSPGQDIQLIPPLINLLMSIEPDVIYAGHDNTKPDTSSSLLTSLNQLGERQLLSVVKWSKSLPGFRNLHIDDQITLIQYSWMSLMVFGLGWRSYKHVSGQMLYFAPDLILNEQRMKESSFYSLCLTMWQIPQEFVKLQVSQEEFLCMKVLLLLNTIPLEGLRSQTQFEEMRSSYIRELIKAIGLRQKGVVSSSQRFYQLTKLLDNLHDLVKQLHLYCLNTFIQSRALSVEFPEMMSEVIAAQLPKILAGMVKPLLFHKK
Method: as §1, §2, §3

GR = target: T3, GR (Homo sapiens, UniProt P04150); test: cell-based
T3 sequence (P04150 1-777): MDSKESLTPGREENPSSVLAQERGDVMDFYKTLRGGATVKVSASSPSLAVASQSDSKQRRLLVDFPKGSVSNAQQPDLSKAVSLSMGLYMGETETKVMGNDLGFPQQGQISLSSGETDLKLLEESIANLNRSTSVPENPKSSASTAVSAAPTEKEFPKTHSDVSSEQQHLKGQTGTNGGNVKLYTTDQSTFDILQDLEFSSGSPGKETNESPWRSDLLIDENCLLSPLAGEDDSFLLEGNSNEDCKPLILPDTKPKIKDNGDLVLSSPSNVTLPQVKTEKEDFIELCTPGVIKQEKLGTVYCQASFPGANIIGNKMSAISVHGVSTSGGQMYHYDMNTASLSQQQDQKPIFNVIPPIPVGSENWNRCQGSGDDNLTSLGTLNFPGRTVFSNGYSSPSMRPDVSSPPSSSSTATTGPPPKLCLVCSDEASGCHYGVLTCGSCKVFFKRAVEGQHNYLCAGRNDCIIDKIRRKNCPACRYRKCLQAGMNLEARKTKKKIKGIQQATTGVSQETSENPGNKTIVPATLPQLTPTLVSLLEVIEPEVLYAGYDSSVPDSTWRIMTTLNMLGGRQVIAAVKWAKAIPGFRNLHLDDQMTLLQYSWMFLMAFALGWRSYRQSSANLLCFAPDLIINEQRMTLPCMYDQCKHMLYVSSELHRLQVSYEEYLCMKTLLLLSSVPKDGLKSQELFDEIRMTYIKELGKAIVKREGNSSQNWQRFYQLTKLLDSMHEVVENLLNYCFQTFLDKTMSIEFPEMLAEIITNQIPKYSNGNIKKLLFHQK
Method: as §1, §2, §3

ER [1] = target: T4, ER (Homo sapiens, UniProt P03372); test: Co-transfection assay, ER antagonist mode; assay type: cell-based
T4 construct: expressed in transfected cells; host or cells: CV-1 cells
Method: as §1, §2, §3

ER [2] = target: T4, ER; test: Co-transfection assay, ER agonist mode; assay type: cell-based
Method: as §1, §2, §3

T4 sequence (P03372 whole entry): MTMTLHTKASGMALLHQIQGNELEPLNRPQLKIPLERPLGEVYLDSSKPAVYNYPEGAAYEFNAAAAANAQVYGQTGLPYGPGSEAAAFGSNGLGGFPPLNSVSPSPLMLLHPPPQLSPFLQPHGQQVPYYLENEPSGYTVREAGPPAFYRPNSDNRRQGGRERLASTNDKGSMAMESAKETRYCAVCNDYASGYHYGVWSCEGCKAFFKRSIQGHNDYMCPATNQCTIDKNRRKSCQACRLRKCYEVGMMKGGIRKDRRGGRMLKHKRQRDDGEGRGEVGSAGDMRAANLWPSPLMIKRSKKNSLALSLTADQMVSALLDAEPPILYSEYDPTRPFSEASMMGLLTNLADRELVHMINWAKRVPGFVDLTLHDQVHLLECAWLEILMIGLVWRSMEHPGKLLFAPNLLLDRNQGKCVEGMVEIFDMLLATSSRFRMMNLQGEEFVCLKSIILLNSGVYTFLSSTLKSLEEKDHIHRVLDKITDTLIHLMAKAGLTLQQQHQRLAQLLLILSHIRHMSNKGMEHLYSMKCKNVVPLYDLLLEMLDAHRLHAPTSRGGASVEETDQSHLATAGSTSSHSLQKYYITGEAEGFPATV

CC12CCCN1c1cc3nc(O)cc(C(F)(F)F)c3cc1CC2 (racemic) [Compound 101, (R/S)-6,7,7a,11-Tetrahydro-7a-methyl-4-trifluoromethyl-2-pyridono[5,6-g]pyrrolidino[1,2-a]quinoline]
> 10 µM: IC50 (MR) | EC50 (PR) | IC50 (GR) | IC50 (ER [1]) | EC50 (ER [2])

CC12CCCN1c1cc3[nH]c(=O)c(F)c(C(F)(F)F)c3cc1CC2 (racemic) [Compound 102, (R/S)-3-Fluoro-6,7,7a,11-tetrahydro-7a-methyl-4-trifluoromethyl-2-pyridono[5,6-g]pyrrolidino[1,2-a]quinoline]
> 10 µM: IC50 (MR) | EC50 (PR) | IC50 (GR) | IC50 (ER [1]) | EC50 (ER [2])
